Reference: paper PMC6505380, “An Extensively Humanized Mouse Model to Predict Pathways of Drug Disposition and Drug/Drug Interactions, and to Facilitate Design of Clinical Trials” (Drug Metabolism and Disposition, 2019)
Where two headings read alike, the source gives them in different places.

Tests used:
[1] = molecular target: T1, CYP2C9 (Homo sapiens, UniProt P11712); assay: Enzyme inhibition assay, tolbutamide hydroxylation (HLM, 8HUM microsomes); conditions: tolbutamide 2 μM in cocktail, furafylline 3, enoxacin 200, fluconazole 300, sulfaphenazole 3, quinidine 3, paroxetine 10, ketoconazole 1 μM
Description: (§1) After a 5-minute preincubation at 37°C, reactions were initiated by addition of NADPH (1.3 mM). […] The samples were then centrifuged at 3000g for 55 minutes at 4°C, and an aliquot of the supernatant fraction was analyzed by LC-MS/MS. All experiments were performed at least in triplicate.

[2] = molecular target: T1, CYP2C9; conditions: sulfaphenazole 50 μM
[3] = molecular target: T2, CYP1A2 (Homo sapiens, UniProt P05177)
T2 sequence (P05177 1-516): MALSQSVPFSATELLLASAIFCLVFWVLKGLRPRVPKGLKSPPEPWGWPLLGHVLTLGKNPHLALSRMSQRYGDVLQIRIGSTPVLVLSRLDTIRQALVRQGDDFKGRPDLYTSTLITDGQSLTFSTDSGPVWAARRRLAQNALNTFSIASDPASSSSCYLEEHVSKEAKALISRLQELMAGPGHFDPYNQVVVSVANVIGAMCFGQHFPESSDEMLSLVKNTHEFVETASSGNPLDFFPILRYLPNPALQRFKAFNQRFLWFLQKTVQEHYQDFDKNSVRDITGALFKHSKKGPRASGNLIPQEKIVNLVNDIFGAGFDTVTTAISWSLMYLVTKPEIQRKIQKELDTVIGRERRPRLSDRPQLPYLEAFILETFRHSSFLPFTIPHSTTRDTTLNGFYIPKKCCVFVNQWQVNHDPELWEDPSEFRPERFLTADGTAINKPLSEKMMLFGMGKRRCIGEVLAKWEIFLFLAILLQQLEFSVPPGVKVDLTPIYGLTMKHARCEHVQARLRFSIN
Description: (§2) A mixture of either 7-methoxyresorufin or 7-ethoxyresorufin (1 μM) and 8HUM liver microsomes or HLM (∼0.38 mg protein/ml) in 100 mM potassium phosphate buffer (pH 7.4) supplemented with MgCl2 (3.3 mM) was incubated at 37°C for 5 minutes before the addition of NADPH (final concentration 1.2 mM). […] Slopes of the linear part of the kinetic curves were calculated using Ascent Software Version 2.4.1 (Labsystems). For each reaction two controls, with and without reaction product resorufin (40 pmol) were run. Fluorescence was measured from both control wells and the difference in fluorescence intensity between wells with and without resorufin was used for the conversion of the relative fluorescence units to the picomoles of the reaction product.

[4] = molecular target: CYP2D6 (Homo sapiens, UniProt P10635, R296C/S486T); assay: Enzyme inhibition assay, debrisoquine 4-hydroxylation (HLM, 8HUM microsomes); conditions: 8HUM microsomes […]; debrisoquine 67 μM in cocktail; furafylline 3, enoxacin 200, fluconazole 300, sulfaphenazole 3, quinidine 3, paroxetine 10, ketoconazole 1 μM
Description: as §1

[5] = test system: CYP2D6; assay: as above; conditions: for Debrisoquine (4-OH Debrisoquine) activity, percent of activity measured in the absence of inhibitor: HLM […], debrisoquine 67 μM in cocktail, furafylline 3, enoxacin 200, fluconazole 300, sulfaphenazole 3, quinidine 3, paroxetine 10, ketoconazole 1 μM
Description: as §1

[6] = test system: CYP3A4; assay: CYP3A4 induction by PXR activators in humanized CAR/PXR/CYP3A4 mice; conditions: CAR/PXR/CYP3A4 model (Supplemental Fig. 4)
Source text: We therefore sought to identify a specific, clinically relevant PXR agonist that was nontoxic. […] Subsequent studies were therefore undertaken using SJW to induce CYP3A4 expression in 8HUM mice.

[7] = design: method as in Cross et al., 2014; conditions: WT mice; ref Cross et al., 2014; cited from earlier work
[8] = Osimertinib pharmacokinetics in 8HUM mice: effect of rifampicin and β-naphthoflavone; conditions: female, mouse, in vivo, po, 25 mg/kg; for AUC / Cmax: female 8HUM mice, osimertinib 25 mg/kg oral
Source text: Humans and rodents metabolize drugs down different pathways and also generate different metabolites both in their site of oxidation as well as in different metabolite ratios when multiple sites of oxidation are involved. […] Mice were pretreated with either RIF or a combination of RIF and β-naphthoflavone (BNF), an aryl hydrocarbon receptor agonist that induces P450s in the CYP1A gene family.
Fig. 4. […] Osimertinib structure and sites of metabolism in humans (C) are also shown. […] Panel B prints no name for the measured substance; it is presumably Osimertinib, the name printed in panel A.

[9] = molecular target: T3, CYP3A4 (Homo sapiens, UniProt P08684); assay: 7-Benzyloxyquinoline O-debenzylation in liver microsomes of rifampicin- or vehicle-treated 8HUM mice; type: in vitro ADME; conditions: liver microsomes of rifampicin-treated 8HUM mice
T3 construct: pooled rifampicin-treated male and female 8HUM mice (8HUM) or pooled human liver microsomes (HLM); host or cells: liver microsomes: pooled human liver; liver of 8HUM mice carrying human CYP3A4/CYP3A7 under the human promoter

[10] = molecular target: T2, CYP1A2; assay: Enzyme inhibition assay, caffeine to paraxanthine (HLM, 8HUM microsomes); conditions: caffeine 220 μM in cocktail, furafylline 3, enoxacin 200, fluconazole 300, sulfaphenazole 3, quinidine 3, paroxetine 10, ketoconazole 1 μM
Description: as §1

[11] = molecular target: T2, CYP1A2; assay: in vitro; conditions: 8HUM, mouse, microsomes, pH 7.4, Inhibition of 7-methoxyresorufin metabolism
Description: as §2

[12] = Pharmacokinetics of cassette-dosed probe drugs in 8HUM mice with or without rifampicin pretreatment; conditions: female, mouse, in vivo, po, AUCall, female 8HUM mice, oral cassette: caffeine, debrisoquine, tolbutamide 5 mg/kg, midazolam 3 mg/kg
Description: Female 8HUM mice received either two daily intraperitoneal doses of RIF (n = 4; 20–26 weeks) or vehicle (corn oil; n = 4; 25–29 weeks). […] Blood samples (10 μl) were collected at the indicated time points after dosing, mixed immediately with 10 μl of heparin (15 IU/ml), snap frozen in liquid nitrogen, and stored at approximately −70°C prior to analysis (see Supplemental Data for details).
Pharmacokinetic parameters were calculated by Phoenix WinNonlin version 8.0.0.3176 (Certara, Princeton, NJ).
Fig. 2. […] Data shown are mean ± S.D.

[13] = molecular target: T3, CYP3A4; assay: Kinetic parameters of 1-hydroxyl midazolam formation in liver microsomes (HLM, 8HUM); type: in vitro ADME; conditions: pH 7.4
Description: All samples were handled in amber tubes under conditions of subdued light for the duration of the procedure. […] The samples were then centrifuged at 3000g for 55 minutes at 4°C and an aliquot of the supernatant fraction was analyzed by LC-MS/MS.
Calibration curves were constructed with authentic metabolite standards and linear regression analysis used to calculate the amount of metabolite formed in each test sample. […] The 7-ethoxyresorufin O-deethylation assay was carried out as detailed below.

[14] = RIF + BNF 80 mg/kg i.p. daily 3 days
[15] = RIF in diet (equivalent 10 mg/kg) 3 days

T1 sequence (P11712 whole entry): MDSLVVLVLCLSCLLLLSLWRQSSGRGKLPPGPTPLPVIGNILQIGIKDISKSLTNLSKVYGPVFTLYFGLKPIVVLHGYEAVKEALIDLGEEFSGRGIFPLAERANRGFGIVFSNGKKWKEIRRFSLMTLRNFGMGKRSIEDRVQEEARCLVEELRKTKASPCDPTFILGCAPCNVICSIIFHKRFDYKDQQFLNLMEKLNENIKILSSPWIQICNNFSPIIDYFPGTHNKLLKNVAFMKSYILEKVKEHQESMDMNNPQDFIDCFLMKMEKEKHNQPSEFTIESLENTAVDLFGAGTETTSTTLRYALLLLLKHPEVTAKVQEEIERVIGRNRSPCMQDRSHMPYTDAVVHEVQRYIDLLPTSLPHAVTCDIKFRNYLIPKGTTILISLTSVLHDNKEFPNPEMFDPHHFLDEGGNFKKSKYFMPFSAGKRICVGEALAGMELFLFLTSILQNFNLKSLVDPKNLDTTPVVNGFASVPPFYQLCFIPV
T3 sequence (P08684 whole entry): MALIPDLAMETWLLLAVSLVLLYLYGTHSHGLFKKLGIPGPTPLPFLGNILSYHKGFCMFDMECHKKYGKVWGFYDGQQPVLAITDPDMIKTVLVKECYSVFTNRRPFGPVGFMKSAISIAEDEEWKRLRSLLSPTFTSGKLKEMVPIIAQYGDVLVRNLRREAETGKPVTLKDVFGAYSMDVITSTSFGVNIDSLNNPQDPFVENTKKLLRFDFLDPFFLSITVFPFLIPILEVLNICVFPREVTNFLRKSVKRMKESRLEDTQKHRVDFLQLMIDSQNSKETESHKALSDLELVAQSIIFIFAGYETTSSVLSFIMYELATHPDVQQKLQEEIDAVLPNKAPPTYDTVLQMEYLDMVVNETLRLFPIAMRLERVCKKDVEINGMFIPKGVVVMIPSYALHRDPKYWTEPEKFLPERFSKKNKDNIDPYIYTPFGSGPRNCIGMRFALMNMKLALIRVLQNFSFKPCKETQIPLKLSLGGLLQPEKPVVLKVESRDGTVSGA

Nc1ccc(S(=O)(=O)Nc2ccnn2-c2ccccc2)cc1 [Sulfaphenazole, sulfaphenazole]
Tolbutamide (OH-Tolbutamide) activity, percent of activity measured in the absence of inhibitor ([1]; 8HUM microsomes […]): 28 ± 15% | Tolbutamide (OH-Tolbutamide) activity, percent of activity measured in the absence of inhibitor ([1]; HLM […]): 14 ± 4% | Remaining tolbutamide 4-hydroxylation activity in the presence of inhibitor ([2]; liver microsomes of control 8HUM mice): 2.01 ± 0.33 pmol/min per milligram | Remaining tolbutamide 4-hydroxylation activity in the presence of inhibitor ([2]; liver microsomes of rifampicin-treated 8HUM mice): 11.43 ± 9.38 pmol/min per milligram

COc1ccc2nc3ccc(=O)cc-3oc2c1 [7-methoxyresorufin]
Rate of 7-methoxyresorufin metabolism [3]: 42.84 ± 9.93 pmol/min per milligram

Cc1nc2c([nH]1)c(=O)n(C)c(=O)n2Cc1ccco1 [Furafylline, furafylline]
Debrisoquine (4-OH Debrisoquine) activity, percent of activity measured in the absence of inhibitor [4]: 91 ± 13% | Debrisoquine (4-OH Debrisoquine) activity, percent of activity measured in the absence of inhibitor [5]: 65 ± 9% | Tolbutamide (OH-Tolbutamide) activity, percent of activity measured in the absence of inhibitor ([1]; 8HUM microsomes […]): 63 ± 19% | Tolbutamide (OH-Tolbutamide) activity, percent of activity measured in the absence of inhibitor ([1]; HLM […]): 103 ± 25%

O=C1Nc2ccc(Cl)cc2[C@@](C#CC2CC2)(C(F)(F)F)O1 [EFV, efavirenz]
Induction of CYP3A4 [6]: effective inducers of CYP3A4

C=C[C@H]1C[N@@]2CC[C@H]1C[C@@H]2[C@@H](O)c1ccnc2ccc(OC)cc12 [Quinidine, quinidine]
Debrisoquine (4-OH Debrisoquine) activity, percent of activity measured in the absence of inhibitor [4]: 43 ± 5%

C=CC(=O)Nc1cc(Nc2nccc(-c3cn(C)c4ccccc34)n2)c(OC)cc1N(C)CCN(C)C [osimertinib]
half-life [7]: 3.5 h | half-life ([8]; 8HUM mice, osimertinib 25 mg/kg by oral gavage): 20 h | AUC ([8]; Control (normal RM1 diet)): 3750 ± 614 ng·h/mL | Cmax ([8]; Control (normal RM1 diet)): 199 ± 29 ng/mL | AUC [8, 14]: 661 ± 132 ng·h/mL | Cmax [8, 14]: 71 ± 7 ng/mL | AUC [8, 15]: 2140 ± 631 ng·h/mL | Cmax [8, 15]: 139 ± 26 ng/mL

c1ccc(COc2ccc3cccnc3c2)cc1 [7-BQ, 7-benzyloxyquinoline]
Rate of 7-BQ hydroxylation (metabolism) [9]: 4218 ± 550 pmol/min per milligram

CCC1(c2ccccc2)C(=O)NC(=O)NC1=O [PB, phenobarbital]
Induction of CYP3A4 [6]: effective inducers of CYP3A4

Fc1ccc([C@@H]2CCNC[C@H]2COc2ccc3c(c2)OCO3)cc1 [Paroxetine, paroxetine]
Debrisoquine (4-OH Debrisoquine) activity, percent of activity measured in the absence of inhibitor [5]: 52 ± 11% | Species difference in extent of inhibition of debrisoquine 4-hydroxylation (HLM vs 8HUM microsomes) ([5]; HLM vs microsomes from 8HUM mice): 4 fold

OC(Cn1cncn1)(Cn1cncn1)c1ccc(F)cc1F [Fluconazole, fluconazole]
Debrisoquine (4-OH Debrisoquine) activity, percent of activity measured in the absence of inhibitor [4]: 88 ± 19% | Debrisoquine (4-OH Debrisoquine) activity, percent of activity measured in the absence of inhibitor [5]: 96 ± 9% | Tolbutamide (OH-Tolbutamide) activity, percent of activity measured in the absence of inhibitor ([1]; 8HUM microsomes […]): 41 ± 33% | Tolbutamide (OH-Tolbutamide) activity, percent of activity measured in the absence of inhibitor ([1]; HLM […]): 35 ± 21% | Caffeine (Paraxanthine) activity, percent of activity measured in the absence of inhibitor ([10]; 8HUM microsomes […]): 100 ± 31% | Caffeine (Paraxanthine) activity, percent of activity measured in the absence of inhibitor ([10]; HLM […]): 114 ± 37%

O=c1cc(-c2ccccc2)oc2c1ccc1ccccc12 [α-naphthoflavone]
inhibition at 3.33 μM [11]: 75%

Cc1ncc2n1-c1ccc(Cl)cc1C(c1ccccc1F)=NC2 [Midazolam, midazolam]
AUC ([12]; rifampicin 10 mg/kg i.p. daily for 2 days pretreatment): 68.8 ± 21.1 ng·h/mL | AUC ([12]; vehicle (corn oil) i.p. pretreatment): 860 ± 138 ng·h/mL | Km at 2 min ([13]; both sexes, 8HUM, mouse, liver microsomes of pooled rifampicin-treated 8HUM mice): 1.2 ± 0.3 µM | Km at 2 min ([13]; human, pooled human liver microsomes): 0.73 ± 0.2 µM
